Where only a bound is given, the exact number is not on record here.

Data set [1] in a line: Test B: Cytotoxicity Assay in MT-4 Cells. It counts as cell-based. To be noted: human, uninfected MT-4 cells, CellTiter-Glo. The protocol:
(§1) For the MT-4 antiviral assay, 50 μL of 3-fold serially diluted compound in complete RPMI medium was added to each well of a 384-well plate (10 concentrations) in quadruplicate. MT-4 cells were infected with HIV-1 (IIIb strain) at a multiplicity of infection (m.o.i.) of ˜0.005 for 1 hour at 37° C. and 20 μL of virus/cell mixture (˜2,000 cells) was added to each well of the assay plate containing 50 μL of diluted compound. A positive control (1 μM azidothymidine, AZT) and a negative control (dimethyl sulfoxide, DMSO) were included in every assay plate to define 100% and 0% protection, respectively. The final DMSO concentration in the assay was 0.5%. The plates were then incubated at 37° C. for 5 days. At the end of the incubation, 30 μL of CellTiter-Glo reagent (Promega Madison, WI) was added to each well of the assay plates. Cell lysis was carried out by incubating the assay plates at room temperature for 10 minutes followed by the quantification of chemiluminescence signal using an EnVision plate reader (Perkin Elmer, Shelton, CT). Antiviral dose response data were normalized to positive and negative controls in each plate and analyzed by curve fitting after conversion of the data to % cell death to determine the half-maximal effective concentration (EC50) value, defined as the compound concentration that caused a 50% protection from cytopathic effect (CPE)-dependent virus-induced cell death. Test B: Cytotoxicity Assay in MT-4 Cells Compound cytotoxicity and the corresponding half-maximal cytotoxicity concentration (CC50) values was determined using the same protocol as described in the antiviral assay (Test A) except that uninfected cells were used and the data were normalized to the 100% viability control (DMSO) wells on each plate.

Another data set relates to HIV-1 (IIIb strain). As to the kind of experiment: Test A: Antiviral Assay in the Human MT-4 T-Lymphoblastoid Cell Line. It counts as cell-based. To be noted: Human immunodeficiency virus 1, MT4, 120 h; MT-4 cells infected with HIV-1 IIIb, 5 days, CellTiter-Glo, protection from virus-induced cell death. As to the method: Test A: Antiviral Assay in the Human MT-4 T-Lymphoblastoid Cell Line
as §1, with “death.” for “death. Test B: Cytotoxicity Assay in MT-4 Cells Compound cytotoxicity and the corresponding half-maximal cytotoxicity concentration (CC50) values was determined using the same protocol as described in the antiviral assay (Test A) except that uninfected cells were used and the data were normalized to the 100% viability control (DMSO) wells on each plate.”

On to `CC(C)(O)C#Cc1ccc(-c2ccc(Cl)c3c(NS(C)(=O)=O)nn(CC(F)(F)F)c23)c([C@H](Cc2cc(F)cc(F)c2)NC(=O)Cn2nc(C(F)(F)F)c3c2C(F)(F)[C@@H]2C[C@H]32)n1` [Example 1, N—((S)-1-(3-(4-chloro-3-(methylsulfonamido)-1-(2,2,2-trifluoroethyl)-1H-indazol-7-yl)-6-(3-hydroxy-3-methylbut-1-yn-1-yl)pyridin-2-yl)-2-(3,5-difluorophenyl)ethyl)-2-((3bS,4aR)-5,5-difluoro-3-(trifluoromethyl)-3b,4,4a,5-tetrahydro-1H-cyclopropa[3,4]cyclopenta[1,2-c]pyrazol-1-yl)acetamide], for which the CC50 at 5 days in data set [1] was found to be 3610 nM. Also, the response in the data set on HIV-1 (IIIb strain) was half-maximal at 0.34 nM (EC50).
For `C=C(C)C#Cc1ccc(-c2ccc(Cl)c3c(NS(C)(=O)=O)nn(CC(F)(F)F)c23)c([C@H](Cc2cc(F)cc(F)c2)NC(=O)Cn2nc(C(F)(F)F)c3c2C(F)(F)[C@@H]2C[C@H]32)n1` [Example 2, N—((S)-1-(3-(4-chloro-3-(methylsulfonamido)-1-(2,2,2-trifluoroethyl)-1H-indazol-7-yl)-6-(3-methylbut-3-en-1-yn-1-yl)pyridin-2-yl)-2-(3,5-difluorophenyl)ethyl)-2-((3bS,4aR)-5,5-difluoro-3-(trifluoromethyl)-3b,4,4a,5-tetrahydro-1H-cyclopropa[3,4]cyclopenta[1,2-c]pyrazol-1-yl)acetamide], in that order: 8740 nM and 18 nM.
As for `CC(C)C#Cc1ccc(-c2ccc(Cl)c3c(NS(C)(=O)=O)nn(CC(F)(F)F)c23)c([C@H](Cc2cc(F)cc(F)c2)NC(=O)Cn2nc(C(F)(F)F)c3c2C(F)(F)[C@@H]2C[C@H]32)n1` [Example 3, N—((S)-1-(3-(4-chloro-3-(methylsulfonamido)-1-(2,2,2-trifluoroethyl)-1H-indazol-7-yl)-6-(3-methylbut-1-yn-1-yl)pyridin-2-yl)-2-(3,5-difluorophenyl)ethyl)-2-((3bS,4aR)-5,5-difluoro-3-(trifluoromethyl)-3b,4,4a,5-tetrahydro-1H-cyclopropa[3,4]cyclopenta[1,2-c]pyrazol-1-yl)acetamide], the midpoint of cytotoxicity in data set [1], the CC50 at 5 days, lay at 7500 nM. This compound also yielded an EC50 in the data set on HIV-1 (IIIb strain) of 21 nM.
As for `CN(c1nn(CC(F)(F)F)c2c(-c3ccc(C#CC(C)(C)S(C)(=O)=O)nc3[C@H](Cc3cc(F)cc(F)c3)NC(=O)Cn3nc(C(F)(F)F)c4c3C(F)(F)[C@@H]3C[C@H]43)ccc(Cl)c12)S(C)(=O)=O` [Example 4, N—((S)-1-(3-(4-chloro-3-(N-methylmethylsulfonamido)-1-(2,2,2-trifluoroethyl)-1H-indazol-7-yl)-6-(3-methyl-3-(methylsulfonyl)but-1-yn-1-yl)pyridin-2-yl)-2-(3,5-difluorophenyl)ethyl)-2-((3bS,4aR)-5,5-difluoro-3-(trifluoromethyl)-3b,4,4a,5-tetrahydro-1H-cyclopropa[3,4]cyclopenta[1,2-c]pyrazol-1-yl)acetamide], in data set [1], the CC50 at 5 days is above 50000 nM. The compound further showed a half-maximal effective concentration (EC50) with HIV-1 (IIIb strain) of 8.3 nM.
For `CC(C)(C#Cc1ccc(-c2cccc3c(NS(C)(=O)=O)nn(CC(F)(F)F)c23)c([C@H](Cc2cc(F)cc(F)c2)NC(=O)Cn2nc(C(F)(F)F)c3c2C(F)(F)[C@@H]2C[C@H]32)n1)S(C)(=O)=O` [Example 5, 2-((3bS,4aR)-5,5-difluoro-3-(trifluoromethyl)-3b,4,4a,5-tetrahydro-1H-cyclopropa[3,4]cyclopenta[1,2-c]pyrazol-1-yl)-N—((S)-2-(3,5-difluorophenyl)-1-(6-(3-methyl-3-(methylsulfonyl)but-1-yn-1-yl)-3-(3-(methylsulfonamido)-1-(2,2,2-trifluoroethyl)-1H-indazol-7-yl)pyridin-2-yl)ethyl)acetamide], in that order: 9480 nM and 0.07 nM.
Taken in the same sequence, the figures for `CCN(c1nn(CC(F)(F)F)c2c(-c3ccc(C#CC(C)(C)S(C)(=O)=O)nc3[C@H](Cc3cc(F)cc(F)c3)NC(=O)Cn3nc(C(F)(F)F)c4c3C(F)(F)[C@@H]3C[C@H]43)ccc(Cl)c12)S(C)(=O)=O` [Example 6, N—((S)-1-(3-(4-chloro-3-(N-ethylmethylsulfonamido)-1-(2,2,2-trifluoroethyl)-1H-indazol-7-yl)-6-(3-methyl-3-(methylsulfonyl)but-1-yn-1-yl)pyridin-2-yl)-2-(3,5-difluorophenyl)ethyl)-2-((3bS,4aR)-5,5-difluoro-3-(trifluoromethyl)-3b,4,4a,5-tetrahydro-1H-cyclopropa[3,4]cyclopenta[1,2-c]pyrazol-1-yl)acetamide] were above 50000 nM and 3.3 nM.

For the origin of these results see patent US20240034724A1, “THERAPEUTIC COMPOUNDS USEFUL FOR THE PROPHYLACTIC OR THERAPEUTIC TREATMENT OF AN HIV VIRUS INFECTION” (Gilead Sciences, Inc., priority 2022, published 2024).
